Reference: the supplement of paper PMC4862054

Experiments:
Conditions in all cases: incubation time: 72 h
[1] = system: MDA-MB-468; test: normalised viability (% of control), CellTiter-Blue; higher = more viable cells (100 = DMSO, 0 = benzethonium chloride kill control)
Experimental: (§1)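 DSRT, CellTiter-Blue viability, 72 h incubation. Signal is normalised to DMSO and benzethonium chloride controls. Value is the normalised response at dose 1.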

[2] = system: CAL-85-1; test: as above
Experimental: as §1

[3] = system: HCC1937; test: as above
Experimental: as §1

[4] = system: HCC1599; test: as above
Experimental: as §1

[5] = system: BT-474; test: as above
Experimental: as §1

[6] = system: CAL-148; test: as above
Experimental: as §1

[7] = system: MDA-MB-453; test: as above
Experimental: as §1

[8] = system: BT-549; test: as above
Experimental: as §1

[9] = system: MDA-MB-436; test: as above
Experimental: as §1

[10] = system: CAL-120; test: drug sensitivity score (DSS), CellTiter-Blue viability (DSS (AUC-based score)); higher = stronger viability inhibition; extreme values may be limits of the assay
Experimental: (§2)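 DSRT with the CellTiter-Blue (resazurin reduction) viability readout, fluorescence 560/590 nm, 72 h incubation. Plates were normalised to DMSO and benzethonium chloride controls. DSS is computed from the area under the fitted dose-response curve (5 or 9 concentrations).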

[11] = system: HDQ-P1; test: as above
Experimental: as §2

[12] = system: CAL-51; test: as above
Experimental: as §2

[13] = system: HCC1143; test: as above
Experimental: as §2

[14] = system: MDA-MB-231; test: as above
Experimental: as §2

[15] = system: MDA-MB-468; test: as above
Experimental: as §2

[16] = system: DU-4475; test: as above
Experimental: as §2

[17] = system: CAL-85-1; test: as above
Experimental: as §2

[18] = system: HCC1937; test: as above
Experimental: as §2

[19] = system: HCC1599; test: as above
Experimental: as §2

[20] = system: BT-474; test: as above
Experimental: as §2

[21] = system: SK-BR-3; test: as above
Experimental: as §2

[22] = system: Hs578T; test: as above
Experimental: as §2

[23] = system: CAL-148; test: as above
Experimental: as §2

[24] = system: MFM-223; test: as above
Experimental: as §2

[25] = system: MDA-MB-453; test: as above
Experimental: as §2

[26] = system: BT-549; test: as above
Experimental: as §2

[27] = system: MDA-MB-436; test: as above
Experimental: as §2

| Structure (SMILES) | normalised viability ([1]; 1 nM) [%] | normalised viability ([3]; 1 nM) [%] | drug sensitivity score [10] | drug sensitivity score [11] | drug sensitivity score [12] | drug sensitivity score [13] | drug sensitivity score [14] | drug sensitivity score [15] | drug sensitivity score [16] | drug sensitivity score [17] | drug sensitivity score [18] | drug sensitivity score [19] | drug sensitivity score [20] | drug sensitivity score [21] | drug sensitivity score [22] | drug sensitivity score [23] | drug sensitivity score [24] | drug sensitivity score [25] | drug sensitivity score [26] | drug sensitivity score [27] | other results |
| --- | --- | --- | --- | --- | --- | --- | --- | --- | --- | --- | --- | --- | --- | --- | --- | --- | --- | --- | --- | --- | --- |
| O=C(Nc1c[nH]nc1-c1nc2ccc(CN3CCOCC3)cc2[nH]1)NC1CC1 [AT9283] | 114 | 95.6 | 18.6 | 12.4 | 14 | 9.48 | 13.2 | 22.4 | 22.7 | 10 | 15.4 | 7.51 | 8.49 | 17.5 | 16.4 | 7.72 | 12.4 | 17.4 | 12.2 | 8.22 | normalised viability ([2]; 1 nM): 88.9%; normalised viability ([4]; 1 nM): 101%; normalised viability ([5]; 1 nM): 96.6%; normalised viability ([6]; 1 nM): 91.3%; normalised viability ([7]; 1 nM): 100%; normalised viability ([8]; 1 nM): 98.5%; normalised viability ([9]; 1 nM): 98.8% |
| COc1cc(CCc2cc(NC(=O)c3ccc(N4CC(C)NC(C)C4)cc3)n[nH]2)cc(OC)c1 (configuration not stated) [AZD4547] |  |  | 0 | 0 | 2.97 | 0 | 0 | 0 | 3.06 | 3.12 | 0 | 6.62 | 0 | 0 | 0 | 2.37 | 15.1 | 5.67 | 0 | 0 | normalised viability ([1]; 0.1 nM): 125%; normalised viability ([2]; 0.1 nM): 89.7%; normalised viability ([3]; 0.1 nM): 105%; normalised viability ([4]; 0.1 nM): 115%; normalised viability ([5]; 0.1 nM): 112%; normalised viability ([6]; 0.1 nM): 113%; normalised viability ([7]; 0.1 nM): 105%; normalised viability ([8]; 0.1 nM): 111%; normalised viability ([9]; 0.1 nM): 94.4% |
| CCC/C=C/C=C/C(=O)O[C@H]1/C(=C/C(=O)OC)C[C@H]2C[C@H]([C@@H](C)O)OC(=O)C[C@H](O)C[C@@H]3C[C@H](OC(C)=O)C(C)(C)[C@](O)(C[C@@H]4C/C(=C/C(=O)OC)C[C@H](/C=C/C(C)(C)[C@]1(O)O2)O4)O3 [Bryostatin 1] | 99.1 | 85.2 | 0 | 0 | 0 | 6.66 | 0 | 0 | 0 | 7.23 | 0 | 16.1 | 0 | 4.97 | 0 | 16.1 | 0 | 0 | 0 | 0 | normalised viability ([2]; 0.01 nM): 97.5%; normalised viability ([4]; 0.01 nM): 123%; normalised viability ([5]; 1 nM): 105%; normalised viability ([6]; 0.01 nM): 98.8%; normalised viability ([7]; 0.01 nM): 102%; normalised viability ([8]; 0.01 nM): 109%; normalised viability ([9]; 0.01 nM): 140% |
| CO[C@@H](C(=O)N1Cc2[nH]nc(NC(=O)c3ccc(N4CCN(C)CC4)cc3)c2C1)c1ccccc1 [Danusertib] | 98.7 | 91.3 | 10.5 | 14.3 | 13.4 | 8.76 | 11 | 15.5 | 14.2 | 10.7 | 10.8 | 6.9 | 0 | 0 | 11.3 | 13.2 | 0 | 18.4 | 9.37 | 4.87 | normalised viability ([2]; 1 nM): 77.2%; normalised viability ([4]; 1 nM): 94.1%; normalised viability ([5]; 1 nM): 101%; normalised viability ([6]; 1 nM): 101%; normalised viability ([7]; 1 nM): 84.3%; normalised viability ([8]; 1 nM): 109%; normalised viability ([9]; 1 nM): 96.5% |
| O=S(=O)(c1cccc2cnccc12)N1CCCNCC1 [Fasudil] | 102 | 88.6 | 0 | 0 | 0 | 0 | 0 | 0 | 0 | 0 | 0 | 0 | 0 | 0 | 0 | 0 | 1.41 | 0.912 | 0 | 0 | normalised viability ([2]; 1 nM): 96%; normalised viability ([4]; 1 nM): 99.4%; normalised viability ([5]; 1 nM): 102%; normalised viability ([6]; 1 nM): 90.8%; normalised viability ([7]; 1 nM): 121%; normalised viability ([8]; 1 nM): 98.8%; normalised viability ([9]; 1 nM): 109% |
| CS(=O)(=O)N1CCN(Cc2cc3nc(-c4cccc5[nH]ncc45)nc(N4CCOCC4)c3s2)CC1 [GDC-0941] | 95.5 | 112 | 10.5 | 18.3 | 13.9 | 9.14 | 8.4 | 8.93 | 2.84 | 9.93 | 8.92 | 11.7 | 11.8 | 19.4 | 8.67 | 11.3 | 12.7 | 18.5 | 9.12 | 7.33 | normalised viability ([2]; 1 nM): 87.5%; normalised viability ([4]; 1 nM): 92.8%; normalised viability ([5]; 1 nM): 101%; normalised viability ([6]; 1 nM): 100%; normalised viability ([7]; 1 nM): 93%; normalised viability ([8]; 1 nM): 94.6%; normalised viability ([9]; 1 nM): 118% |
